Measurements from patent US10875845B2, “Compounds and methods for the treatment of ocular disorders” (Azura Ophthalmics Ltd., priority 2019, dated 2020).

What was measured:
[1] = system: Rabbit Cornea Homogenate; experiment: Rabbit Cornea Homogenate Stability Assay (rabbit cornea esterase assay); assay type: in vitro ADME; settings: 37° C.
Method: Determining Rabbit Cornea Homogenate stability of the test compounds was performed using HPLC-MS. The assay was performed at two concentrations of Rabbit Cornea Homogenate (0.15 mg/ml and 0.45 mg/ml total protein) so that any hydrolysis observed could be assigned as esterase dependent or not.
Five rabbit corneas (e.g. New Zealand Whites) of approx. 50 mg each were sliced and scraped with a scalpel and tweezers until reduced to small (1-3 mm), thin pieces. These were transferred into a tared vial and accurately weighed, then diluted with 10 volumes aqueous PBS pH7.4
Sample was cooled intermittently on ice and shear homogenized for 3 minutes, then centrifuged for 3 min at 3000 rpm. The supernatant was pipetted off into a vial, and total protein concentration determined at 280 nm. Sample was stored at −78° C.
10 mM Compound stocks were diluted to 100 μM in a 96 deep-well plate: 10 μl of 10 mM Compound stock was added to 990 μl 50 mM HEPES, pH7.5 buffer.
Compounds were further diluted to 10 μM: 100 μl of 100 μM compound was added to 900 μl 50 mM HEPES, pH7.5 buffer.
Esterase homogenate was diluted to 300 ng/μl and 900 ng/μl
A heater shaker was set to 37° C. Into a suitable 96 well plate (Run Plate), 75 μl of 300 or 900 ng/μl esterase homogenate was pipetted into each of the required wells (2 min, 5 min, 10 min, 20 min and 45 min). The plate was sealed and then warmed at 37° C. for 5 min. Another 96 well PCR plate is put on ice (Kill Plate). To this was added 100 μl of MeCN to each well, labelled 0 min, 2 min, 5 min, 10 min, 20 min and 45 min. The plate was covered to minimise evaporation. For the T=0 sample only, to the 100 μl cold MeCN stop solution was added 50 μl of 300 or 900 ng/μl esterase homogenate followed by 50 μl of 10 μM compound solution For the remaining time points, 75 μl of 10 μM compound solution was added to the Run Plate starting from T=45 min row and ending with T=2 min row. At the appropriate time point, 100 μl of the assay mixture was added to the matching kill plate well containing 100 μl of cold MeCN. Samples were analysed as soon as practicable by LCMS (Waters Xevo TQ-S or Micromass Ultima).
Parent conjugate and parent concentrations were determined against appropriate standard response curves and the half-life (T1/2) of the parent conjugate was calculated using the peak area of the parent conjugate at each time point in the linear region of the log—linear plot.

[2] = Aqueous Hydrolysis Stability Assay; assay type: physicochemical; settings: at 45 min; 100 μM in 50 mM HEPES pH 7.5 buffer or 1:1 Acetonitrile:Water, room temperature
Method: Determination of aqueous stability of the test compounds was performed using HPLC-MS. A test compound 10 mM stock solution was prepared in DMSO. 10 μl of the DMSO stock solution was dissolved in 990 μl of 50 mM HEPES pH 7.5 buffer or 1:1 (v/v) of Acetonitrile:Water to make a 100 μM solution. Final DMSO concentration was 1%. The solution was kept at room temperature and injected without delay into the LCMS (Waters Xevo TQ-S or Micromass Ultima). Additional injections were performed at appropriate time points.
Half-life (T1/2) of the parent conjugate was calculated using the peak area of the parent conjugate at each time point in the linear region of the log—linear plot.

[3] = Cornea Homogenate Conc 0.15 mg/mL
[4] = Cornea Homogenate Conc 0.45 mg/mL

- API Formation rate [1, 3]: a (API formation rate<0.5%/min)
- API Formation rate [1, 4]: b (API formation rate 0.5-1.0%/min)
- Esterase % Lifitegrast formation at 45 min [1, 4]: B (percent API formation 25% to 50%)
Structure (SMILES): CC(OC(=O)CCCC[C@@H]1CCSS1)OC(=O)[C@H](Cc1cccc(S(C)(=O)=O)c1)NC(=O)c1c(Cl)cc2c(c1Cl)CCN(C(=O)c1ccc3ccoc3c1)C2 (stereo partly drawn) [Comp 20, 1-(((S)-2-(2-(benzofuran-6-carbonyl)-5,7-dichloro-1,2,3,4-tetrahydroisoquinoline-6-carboxamido)-3-(3-(methylsulfonyl)phenyl)propanoyl)oxy)ethyl 5-((R)-1,2-dithiolan-3-yl)pentanoate]
- Esterase % Lifitegrast formation at 45 min [1, 3]: A (percent active pharmaceutical ingredient (API) formation<25%)
- Hydrolytic % Lifitegrast formation at [time] [2]: A [45 min] (percent active pharmaceutical ingredient (API) formation<1.5%)
